{
  "source": "patent US20210186924A1",
  "about": "“COMPOSITION FOR PROMOTING URIC ACID EXCRETION, COMPOSITION FOR INHIBITING URAT1 AND COMPOSITION FOR LOWERING BLOOD URIC ACID LEVEL” (SUNTORY HOLDINGS LIMITED, priority 2018, published 2021)",
  "key": {"human URAT1": {"molecular_target": "T1, human URAT1 (Homo sapiens, UniProt Q96S37)", "T1 construct": "expressed in transfected cells", "T1 sequence (Q96S37 1-553)": "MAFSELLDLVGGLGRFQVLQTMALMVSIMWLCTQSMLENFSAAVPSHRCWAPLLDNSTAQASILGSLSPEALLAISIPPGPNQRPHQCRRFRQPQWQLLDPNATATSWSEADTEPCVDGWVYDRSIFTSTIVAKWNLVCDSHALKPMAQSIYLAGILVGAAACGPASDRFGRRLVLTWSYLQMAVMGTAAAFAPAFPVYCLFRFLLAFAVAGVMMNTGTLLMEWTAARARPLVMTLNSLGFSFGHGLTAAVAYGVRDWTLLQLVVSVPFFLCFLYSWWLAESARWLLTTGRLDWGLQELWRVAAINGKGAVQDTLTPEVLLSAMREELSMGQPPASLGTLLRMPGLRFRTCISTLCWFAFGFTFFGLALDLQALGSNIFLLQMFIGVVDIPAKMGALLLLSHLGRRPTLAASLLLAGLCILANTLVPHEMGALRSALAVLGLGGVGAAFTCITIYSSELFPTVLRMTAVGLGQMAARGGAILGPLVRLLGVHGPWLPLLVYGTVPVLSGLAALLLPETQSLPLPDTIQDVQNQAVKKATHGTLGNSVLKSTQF", "assay": "URAT1 inhibition: 14C-uric acid uptake in MDCK2 cells stably expressing human URAT1", "type": "cell-based", "settings": "for IC50: read-out: IC50 (test substance concentration at which URAT1 was inhibited 50%) (converted); for URAT1 inhibition rate (result in words, FIGS. 1 to 4): test substance 1 to 200 μg/mL, uric acid uptake vs DMSO control", "procedure": "Each test substance was dissolved in dimethyl sulfoxide (DMSO) and added to HBSS to give a test substance concentration of 1, 5, 10, 15, 20, 40, 60, 80, 100, or 200 μg/mL. […] Uric acid was added to HBSS to give a concentration of 20 μM. Subsequently, the cells were washed again with HBSS, and then dissolved in a 0.1 N sodium hydroxide aqueous solution. The radiation dose of 14 C in the solution was measured by a liquid scintillation counter, and the uptake amount of uric acid into the cells was measured. A positive control was provided by adding benzbromarone at 30 μM. A test substance non-addition group as a control was provided by adding only DMSO to HBSS (DMSO concentration: 1%). The tests were performed with n=3 for the control and for the test substances at each concentration. […] The uptake amount of uric acid was determined with an average of n=3. The calculation formula of the URAT1 inhibition rate (%) is as follows. The control group is the test substance non-addition group.\nInhibition rate (%)=100×{((uptake amount of uric acid in control group)−(uptake amount of uric acid in test substance addition group))/uptake amount of uric acid in control group}"}, "[1]": {"settings": "high temperature of 100° C.; cited from earlier work"}, "[2]": {"settings": "MDCK2 cells expressing human URAT1, 14C-uric acid 20 μM, 10 minutes, n=3"}},
  "data": [
    {"smiles": "CCc1oc2ccccc2c1C(=O)c1cc(Br)c(O)c(Br)c1", "note": "[benzbromarone, reference compound]", "values": [
      {"measurement": "inhibition at 30 µM", "setting": "human URAT1; MDCK2, read-out: URAT1 inhibition rate", "value": "99 to 100", "unit": "%"}
    ]},
    {"smiles": "O=C1C[C@@H](c2ccc(O)cc2)Oc2cc(O)cc(O)c21", "note": "[Naringenin, naringenin]", "values": [
      {"measurement": "IC50", "setting": "human URAT1; [2]", "value": 41.9, "unit": "µM"},
      {"measurement": "URAT1 inhibition rate (result in words, FIGS. 1 to 4)", "setting": "human URAT1", "value": "significant increase in the inhibition rate"}
    ]},
    {"smiles": "COc1cc(O)c(CC=C(C)C)c(O)c1C(=O)/C=C/c1ccc(O)cc1", "note": "[xanthohumol, reference compound]", "values": [
      {"measurement": "URAT1 inhibition rate (result in words, FIGS. 1 to 4)", "setting": "human URAT1", "value": "did not show a significant increase in the inhibition rate"}
    ]},
    {"smiles": "O=C1C[C@@H](c2ccc(O)c(O)c2)Oc2cc(O)cc(O)c21", "note": "[Eriodictyol, eriodictyol]", "values": [
      {"measurement": "IC50", "setting": "human URAT1; [2]", "value": 43.5, "unit": "µM"},
      {"measurement": "URAT1 inhibition rate (result in words, FIGS. 1 to 4)", "setting": "human URAT1", "value": "significant increase in the inhibition rate"}
    ]},
    {"smiles": "COc1cc(O)c(CC=C(C)C)c2c1C(=O)CC(c1ccc(O)cc1)O2", "note": "(centres unmarked) [Isoxanthohumol, isoxanthohumol]", "values": [
      {"measurement": "Thermal stability", "setting": "[1]", "value": "stable even at a high temperature of 100 °C"},
      {"measurement": "IC50", "setting": "human URAT1; [2]", "value": 25.1, "unit": "µM"},
      {"measurement": "URAT1 inhibition rate (result in words, FIGS. 1 to 4)", "setting": "human URAT1", "value": "significant increase in the inhibition rate"}
    ]},
    {"smiles": "COc1ccc([C@@H]2CC(=O)c3c(O)cc(O[C@@H]4O[C@H](CO[C@@H]5O[C@@H](C)[C@H](O)[C@@H](O)[C@H]5O)[C@@H](O)[C@H](O)[C@H]4O)cc3O2)cc1O", "note": "[Hesperidin, hesperidin]", "values": [
      {"measurement": "IC50 (test substance concentration at which URAT1 was inhibited 50%)", "setting": "human URAT1; [2]", "value": 16.97, "unit": "µg/mL"},
      {"measurement": "URAT1 inhibition rate (result in words, FIGS. 1 to 4)", "setting": "human URAT1", "value": "significant increase in the inhibition rate"}
    ]}
  ]
}
